In US9468632B2, “Methods and compositions for targeting cancer stem cells” (The Regents of the University of Michigan, priority 2012, dated 2016):

Key:
all the ALDH1A isoforms = experiment: In vitro enzymatic inhibition assays, text summary for ALDH1A isoforms; type: biochemical
ALDH+ cells = experiment: FACS isolated single cells in microfluidic culture, cell death; type: cell-based
Procedure: (§1) In order to determine if the loss of CD133 or ALDH expressing cells is due to downregulation/loss of enzyme function or due to cell death, FACS isolated CD133+ or ALDH+ cells were treated as single cells in microfluidic culture. 673 treatment was associated with the death of ˜93% of CD133+ cells and 65% death of ALDH+ cells (FIG. 1B).

CD133+ cells = experiment: as above; type: cell-based
Procedure: as §1

[1] = test system: ovarian cancer cell lines including A2780, SKOV3, and OvCAR8; experiment: MTT assay, ovarian cancer cell lines; type: cell-based, human; settings: 72 hours, range over cell lines
Procedure: (§2) TD50 ranged from 12-50 uM.

A2780 = experiment: MTT assay, A2780 viability; type: cell-based, human
Procedure: as §2

[2] = test system: pancreatic cancer cell lines and breast cancer cell lines (ASPC, PANC1, MCF7); experiment: MTT toxicity screen, pancreatic and breast cancer cell lines; type: cell-based
Procedure: A. MTT assay of cytotoxicity of indicated compounds at increasing doses 72 hours after treatment of ovarian cancer cell. B. MTT assay for pancreatic (ASPC and PANC1) and breast cancer (MCF7) cell lines. C. MTT assays of 673 for normal cells (HOSE and MSC) and ovarian cancer (OvCAR8) controls.
as §2

[3] = test system: FACS isolated CD133+A2780 cells; experiment: Tumor sphere forming assay, CD133+ A2780; type: cell-based, human; settings: single treatment with 10 μM
Procedure: (§3) Tumor associated ascites cells were isolated by centrifugation and treated with ACK lysis buffer (Fischer Scientific). 5000 cells were placed in each well of the 6-well ultra-low adherence plates (Corning, Acton, Mass., USA) with 3 ml of supplemented MEBM (Lonza). After 24 hours, cells were treated with either media alone or UM #673. Media was added every 3-4 days, and all tumor sphere counts were done at 2 weeks. Alternatively, sphere assays were also performed with cancer cell lines A2780 and OVCAR8. Cells in culture were trypsinized and 2000 cells were either directly placed or FACS isolated for CD133+ and CD133− cells before plating in wells of ultra-low adherence plates. Images of spheres were photographed using the Olympus Microsuite Biological suite Software.
(§4) In order to further characterize UM #673 activity targeting OvCSC, a functional CSC assay was performed. Tumor sphere forming assays were performed with both FACS isolated CD133+A2780 cells and OVCAR8 cells (a cell line with >90% CD133 expression). […] This assay was repeated using primary human ovarian cancer associated ascites cell from three patients. Treatment with 673 was associated with an average of 7.3 fold (range 4-50) reduction in the number of spheres formed (FIG. 4A).

OVCAR8 cells = experiment: Tumor sphere forming assay, OVCAR8; type: cell-based, human
Procedure: as §3, §4

[4] = test system: primary human ovarian cancer associated ascites cell; experiment: Tumor sphere forming assay, primary ascites cells; type: cell-based; settings: three patients, range 4-50
Procedure: as §3, §4

[5] = test system: in vitro treated, PI-/Annexin-FACS isolated live cells; experiment: Tumor initiation capacity of in vitro treated live cells injected into mice; type: in vivo
Procedure: An important functional aspect of a cancer stem cell is the ability to initiate tumors with limited cell numbers. In order to determine if UM673 could impact tumor initiation, cells were treated in vitro with a single dose of UM673 alone or in combination with cisplatin. Cells were allowed to recover for three days and then PI(−)/Annexin(−) live cells were faxed isolated and injected into mice. 200, 1000, or 5000 cells from each treatment group (n=4-10/group) were injected.

[6] = test system: A2780 tumor cell xenografts; experiment: A2780 tumor cell xenografts, tumor growth; type: in vivo, mice; settings: unsorted A2780 cells, treatment from day 3
Procedure: (§5) 6-8 week old nude female mice were purchased from Charles River Laboratories. All xenograft experiments were performed with approval of the University Committee on Use and Care of Animals of the University of Michigan. To generate tumors, 7.5×10^4 unsorted A2780 cells or 7500 CD133+ sorted A2780 cells were combined with 100 μl of DPBS and 100 μl of Matrigel (BD Biosciences), and then implanted subcutaneously into bilateral axillae of each mouse. 3 days after inoculation with tumors, mice were given an intra-peritoneal injection of (1) control DMSO 40 μl, (2) Cisplatin 250 μg/ml, (3) UM #673 10 μM, or (4) Cisplatin plus UM #673 (n=9 mice per treatment group). Tumor growth was measured using calipers, and tumor volume was calculated based on the modified ellipsoid formula (L×W×W/2), where L is the length and W is the width of the tumor. The mice were euthanized when tumors reached 1.5 to 2 cm^3 and animal safety euthanasia guidelines were met. Intraperitoneal tumors were generated using 5×10^6 OVCAR8 in […] of PBS and injected I.P. 3 days after inoculation, mice were given intra-peritoneal injection of Cisplatin or Cisplatin plus UM #673.
The impact of UM673 as a single agent was evaluated. NOD/SCID mice were inoculated with 1×10^5 unsorted A2780 cells and treatment was initiated three days after tumor inoculation with either vehicle control or UM #673. […] This is consistent with other studies of CSC targeting agents.
The experiments were repeated in combination with cisplatin. In addition, xenografts from both whole cell line and FACS isolated CD133+ cells were treated.

[7] = test system: isolated CD133+ cancer stem cells initiated tumors; experiment: CD133+ cancer stem cell initiated tumors, tumor growth; type: in vivo, mice; settings: single agent
Procedure: as §5
The impact of UM673 as a single agent was evaluated. NOD/SCID mice were inoculated with 1×10^5 unsorted A2780 cells and treatment was initiated three days after tumor inoculation with either vehicle control or UM #673. […]

[8] = test system: primary human tumor xenografts; experiment: Primary human tumor xenografts from chemotherapy refractory ovarian cancer; type: in vivo, mice
Source text: In order to confirm in vivo activity against primary ovarian cancers, primary human tumor xenografts were generated from a patient with chemotherapy refractory ovarian cancer. Xenografts were allowed to grow until they reached ˜500 mm^3, and then treatment with either vehicle, cisplatin or cisplatin and UM 673 was initiated. […] After discontinuation of therapy, tumor regrowth was observed after approximately 4 weeks (FIG. 5D).

[9] = test system: Annexin-V staining (apoptosis); experiment: PI/Annexin-V FACS analysis; type: cell-based
Procedure: PI/Annexin-V FACS analysis of UM673 treated cells was performed to determine if cells were undergoing apoptosis.

intracellular calcium = experiment: Fluorescent analysis of intra-cellular calcium; type: cell-based
Procedure: Programmed cell necrosis is known to be linked with decreases in cellular ATP and an increase in intracellular calcium. […] Furthermore, reduction in CD 133 positive cells with UM 673 treatment could be partially abrogated by the calcium scavenging compound BAPTA (FIG. 6E). As program cell necrosis is known to be activated via the RIP kinases, the impact of the RIP kinase inhibitor necrostatin was evaluated.

UCP1 and UCP3 = experiment: qRT-PCR of necrosis associated genes; type: cell-based
Procedure: (§6) ALDH1A isoforms are the primary members of the ‘retinaldehyde’ subgroup of aldehyde dehydrogenases. Retinaldehydes play a primary role in the biosynthesis of retinoic acid and thereby regulate retinoic acid mediated transcription. Retinoic acid transcription changes in cells treated with UM673 were assayed. […] 80× induction of the mitochondrial uncoupling proteins UCP1 and UCP3 was observed (FIG. 7B).

Oct4, and Sox2 = experiment: qRT-PCR of stem cell genes; type: cell-based
Procedure: as §6

[10] = test system: cellular oxygen consumption; experiment: SeaHorse cellular metabolism studies; type: cell-based
Procedure: UCP1 and UCP3 proteins play a critical role in cellular metabolism. The impact of UM673 on cellular metabolism was evaluated.

mitochondrial metabolism = experiment: LCMS of cellular metabolites; type: cell-based
A2770 cells = experiment: FACS analysis of CD133 and ALDH expressing cells; type: cell-based
[11] = test system: normal human ovarian surface epithelial cells; settings: 72 h
Procedure: (§7) 7500 of HOSE, MSC, and OVCAR8 cells were plated on a 96-well plate and rested for 24 hours. They were then treated with incremental doses of 673 for 72 hours. They were then analyzed according to the Vybrant® MTT Cell Proliferation Assay Kit (Invitrogen).
(§8) The toxicity of these compounds versus normal human ovarian surface epithelial cells and healthy adipose derived mesenchymal stem cells was assayed.

[12] = test system: healthy adipose derived mesenchymal stem cells; settings: human, 72 h
Procedure: as §7, §8

Compound: Cc1cc(N2Cc3ccccc3C2)ccc1C=O [UM673]
- IC50 (all the ALDH1A isoforms): < 0.23 µM
- death of ALDH+ cells (ALDH+ cells): 65%
- death of CD133+ cells (CD133+ cells): ~93%
- TD50 [1]: 12 to 50 µM
- lowest dose with measurable effects on A2780 viability (A2780): 2.5 µM
- cytotoxicity versus bulk populations [2]: variable modest cytotoxicity
- decrease in sphere number [3]: 2.6 fold
- reduction in total cell number [3]: ~8 fold
- decrease in sphere formation (OVCAR8 cells): 5.6 fold
- reduction total cell numbers (OVCAR8 cells): 3 fold
- average reduction in the number of spheres formed [4]: 7.3 fold
- tumor initiation (tumors/injections) ([5]; 200 cells injected): 2/4
- tumor initiation (tumors/injections) ([5]; 1000 cells injected): 4/4
- tumor initiation (tumors/injections) ([5]; 5000 cells injected): 4/5
- effect on tumor initiation capacity ([5]; compared to untreated controls): neither cisplatin or UM673 affected tumor initiation
- tumor growth [6]: statistically significant reduction in tumor growth
- tumor growth ([6]; listed as UM 673): modest restrictions in tumor growth
- tumor growth [7]: Greatest activity
- time to tumor regrowth after discontinuation of therapy ([8]; mouse, in vivo): approximately 4 weeks
- tumor growth ([8]; treatment started at ˜500 mm^3): prevented tumor regrowth
- Annexin-V staining [9]: not associated with an increase in Annexin-V staining
- increase in intracellular calcium (intracellular calcium): fourfold increase
- induction of the mitochondrial uncoupling proteins UCP1 and UCP3 (UCP1 and UCP3): 80 ×
- expression of stem cell factors Oct4 and Sox2 (Oct4, and Sox2): down regulated
- cellular oxygen consumption [10]: slow and steady decline
- levels of citrate (mitochondrial metabolism): marked decrease
- loss of ALDH+ and CD133+ cells (A2770 cells): reductions in not only ALDH+ cells, but also CD133+ cells
- TD50 [11]: ~105 µM
- TD50 [12]: ~105 µM
